The target of the experiment is T1, Receptor-interacting serine/threonine-protein kinase 1 (Homo sapiens, UniProt Q13546).
T1 sequence (Q13546 whole entry): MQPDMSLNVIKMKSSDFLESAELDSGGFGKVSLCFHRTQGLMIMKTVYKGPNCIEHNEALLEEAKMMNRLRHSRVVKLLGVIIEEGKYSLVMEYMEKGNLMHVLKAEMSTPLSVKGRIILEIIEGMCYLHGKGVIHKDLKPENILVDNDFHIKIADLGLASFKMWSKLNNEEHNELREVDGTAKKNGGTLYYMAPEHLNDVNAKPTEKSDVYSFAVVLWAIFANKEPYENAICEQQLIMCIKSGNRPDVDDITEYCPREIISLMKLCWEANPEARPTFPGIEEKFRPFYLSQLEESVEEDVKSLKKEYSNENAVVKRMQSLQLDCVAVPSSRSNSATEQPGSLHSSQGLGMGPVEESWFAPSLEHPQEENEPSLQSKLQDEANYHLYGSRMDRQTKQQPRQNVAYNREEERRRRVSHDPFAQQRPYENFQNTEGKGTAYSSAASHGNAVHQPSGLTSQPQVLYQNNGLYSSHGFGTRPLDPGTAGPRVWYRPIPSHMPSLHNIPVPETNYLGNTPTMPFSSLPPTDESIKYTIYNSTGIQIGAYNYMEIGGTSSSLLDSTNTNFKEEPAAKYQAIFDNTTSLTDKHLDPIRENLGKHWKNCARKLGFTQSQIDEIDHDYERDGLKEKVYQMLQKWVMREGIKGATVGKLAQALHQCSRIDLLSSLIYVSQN
The experiment in a line: Binding affinity to RIP1 (unknown origin) by fluorescence polarization assay.

On to `O=C(N[C@H]1CNc2cc(Cl)ccc2NC1=O)c1nnc(Cc2ccccc2)[nH]1`, for which the IC50 (in general, the concentration that gives 50% inhibition) was 20 nM. This lies in the double-digit nanomolar range.

The values above are taken from ChEMBL document CHEMBL4325917, “Heterocyclic Amides as Kinase Inhibitors” (ACS Med Chem Lett, 2018).
